# What was measured:
# Format in all cases: in vivo
# hybrid corn = assay: Corn trial Arcadia, IA 2015, yield; details: field; spray at V7; GA3 120 mg/liter, GB 10000 mg/liter, (S)-ABA 9 mg/liter
# Description: In a corn trial conducted in Arcadia, Iowa, hybrid corn was sown Apr. 30, 2015 and sprayed at V7 with solutions containing a non-ionic surfactant (0.25%, v/v) at 15 gallons of spray volume.
# corn plants [1] = assay: Field study Colby, KS 2015, yield; details: GA3 120 mg/liter, GB 10000 mg/liter, (S)-ABA 9 mg/liter
# Description: In a field study conducted in Colby, Kans., corn plants were sprayed with solutions containing a non-ionic surfactant (0.25%, v/v) at 15 gallons of spray solution per acre.
# greenhouse-grown maize [2] = assay: Leaf chlorophyll by SPAD meter, GA3 dose +/- GB; details: without or with GB 10000 mg/liter
# Method: In the same study, leaf chlorophyll was monitored by measurements with a SPAD meter (Minolta Model 502; Ramsey, N.J.). In this study, the chlorophyll level in the most recently fully-expanded leaf was measured at five different points and the results averaged.
# greenhouse-grown maize [3] = assay: Greenhouse study: effect of GA3 dose +/- GB on growth, 7 and 14 days; details: without or with GB 10000 mg/liter
# Method: (§1) In several of the following examples, corn was grown in greenhouse conditions, which are defined as follows. Seeds of a commercial hybrid variety were sown in Pro-Mix® BX (Pro-Mix is a registered trademark of Premier Horticulture Ltd.) with the addition of Osmocote (14-14-14) and gypsum in three-liter pots. Greenhouses were kept at 25±3° C. under a 16:8 hour photoperiod, with illumination at canopy level of ˜250 μmoles m^−2s^−1. Corn was typically fertigated with Peters 21-5-20+micronutrients, calcium ammonium nitrate and magnesium sulfate. Typical growth rates for corn under these conditions ranged from 4-5 cm/day.
# (§2) In most greenhouse studies, spray applications were made. These applications were made in a track sprayer outfitted with a 4001E Teejet® nozzle (Teejet is available from and a registered trademark of Spraying Systems Co., Glendale Heights, Ill., USA) and applied at 40 psi. Although application volumes did vary between some studies, generally, 30 gallons/acre of spray solution was applied. Following spray applications, plants were returned to the greenhouse. Typically, experiments were blocked according to plant size, and a randomized complete block design (RCB) was used.
# (§3) Synergy was determined using the following formula, in which a synergy factor is calculated by the Abbott method: % Cexp=A+B−(AB/100), here % Cexp is the expected efficacy and “in which A and B are the increase in growth (or resistance to stress) levels given by the single [plant growth regulators]. If the ratio between the experimentally observed efficacy of the mixture Cobs and the expected efficacy of the mixture is greater than 1, synergistic interactions are present in the mixture” (Gisi, Synergistic Interaction of Fungicides in Mixtures, The American Phytopathological Society, 86:11, 1273-1279, 1996).
# In a separate study, the effect of one rate of GB on various doses of GA3 was studied.
# corn [4] = assay: Field study Woodstock, IL 2015, height, ear counts and yield
# Method: A field study was conducted at Woodstock, Ill. Seeds of a central corn belt variety with 103 days to maturity were sown and plants were sprayed at V5 with solutions containing a non-ionic surfactant (0.25%, v/v) at 15 gallons of spray solution/acre. Growth was followed by measuring shoot heights in centimeters 50 plants in each replicate at 7 and 13 days post-spraying. The number of kernels per kernel-row (average kernel number) as well as the number of kernel-rows (average row number) per ear was counted for 50 plants in each replicate 7 days before harvest. The harvest grain yield was corrected to 15% moisture.
# corn plants [5] = assay: Greenhouse study: growth of corn after V3 spray with GA3 or GB, nine days; details: non-stressed greenhouse; spray at V3; GA3 120 mg/liter, GB 3000 mg/liter; n = 7
# Method: as §1, §2
# In a greenhouse study conducted in Long Grove, Ill., corn plants were sprayed at V3 stage with solutions containing a non-ionic surfactant (0.25%, v/v) at 30 gallons of spray solution/acre and growth was followed for nine days.
# as §3
# Based on a conservative approach, synergy was determined to be present at ratios of ≥1.10. When grown under non-stressed conditions, GA3 growth was synergized by the addition of 3,000 mg/liter glycine betaine (“GB”), with a synergy factor of 1.65 for growth and 1.68 for growth rate while dry weight/plant was not synergistic with a synergy factor of 0.95.
# corn plants [6] = assay: Chilling stress study (10° C. for five days) after spray with GA3 or GB; details: chilling stress at 10° C. for five days; GA3 120 mg/liter, GB 3000 mg/liter; n = 7 plants
# Method: In stress studies, plants were subjected to various stresses. In cold stress studies, after spraying, plants were grown in the greenhouse for an additional 48 hours before being measured and moved to a CMP6050 CONVIRON® chamber kept at 10° C. (Conviron is a registered trademark of Controlled Environments Limited Corporation). Illumination was at ˜225 μMoles, and light:dark conditions were on a 12:12 hour photoperiod. After 120 hours of chilling, plants were removed from the cold, measured, and returned to the greenhouse for 48 hours prior to harvest.
# as §3
# In a greenhouse and growth room study conducted in Long Grove, Ill., corn plants of a commonly grown hybrid were subjected to the following stress regimen: at two days post-foliar application, plants were moved into a controlled environment chamber, where the temperature was maintained at 10° C. with a 12:12 hour photoperiod for five days. At the end of the chilling period, the corn was moved back to the greenhouse for two days before destructive harvest.
# corn [7] = assay: Field study Woodstock, Ill. 2014, corn growth
# Method: A field study was conducted at Woodstock, Ill. in 2014. Seeds of a central corn belt hybrid with 111 days to maturity were sown on May 20, 2014. Plants were sprayed at V4 with solutions containing a non-ionic surfactant (0.25%, v/v) at 15 gallons of spray solution/acre. Growth was followed by measuring shoot height in centimeters for 60 plants in each replicate at 7 and 14 days post spraying.
# [8] = field, spray at V5, GA3 120 mg/liter, GB 10000 mg/liter, (S)-ABA 9 mg/liter
# [9] = field, spray at V4, GA3 120 mg/liter, GB 10,000 mg/liter
compound,measurement,setting,value
"C=C1C[C@]23C[C@@]1(O)CC[C@H]2[C@@]12C=C[C@H](O)[C@@](C)(C(=O)O1)[C@H]2[C@@H]3C(=O)O [GA3, gibberellic acid]",Yield,hybrid corn,185.8 bu/acre
same,Yield,corn plants [1],188.9 bu/acre
same,Chlorophyll (SPAD reading) 14 days,greenhouse-grown maize [2]; GA3 30 mg/liter,33.1 SPAD reading
same,Chlorophyll (SPAD reading) 14 days,greenhouse-grown maize [2]; GA3 60 mg/liter,32.9 SPAD reading
same,Chlorophyll (SPAD reading) 14 days,greenhouse-grown maize [2]; GA3 120 mg/liter,31.6 SPAD reading
same,Chlorophyll (SPAD reading) 14 days,greenhouse-grown maize [2]; GA3 240 mg/liter,31.1 SPAD reading
same,"Growth Rate, 0-7 day(s)",greenhouse-grown maize [3]; GA3 30 mg/liter,3.17 cm/day
same,"Growth Rate, 0-14 day(s)",greenhouse-grown maize [3]; GA3 30 mg/liter,6.82 cm/day
same,Plant Growth over 7 days,greenhouse-grown maize [3]; GA3 30 mg/liter,22.2 cm
same,Plant Growth over 14 days,greenhouse-grown maize [3]; GA3 30 mg/liter,47.8 cm
same,"Growth Rate, 0-7 day(s)",greenhouse-grown maize [3]; GA3 60 mg/liter,3.57 cm/day
same,"Growth Rate, 0-14 day(s)",greenhouse-grown maize [3]; GA3 60 mg/liter,7.24 cm/day
same,Plant Growth over 7 days,greenhouse-grown maize [3]; GA3 60 mg/liter,25.0 cm
same,Plant Growth over 14 days,greenhouse-grown maize [3]; GA3 60 mg/liter,50.7 cm
same,"Growth Rate, 0-7 day(s)",greenhouse-grown maize [3]; GA3 120 mg/liter,3.91 cm/day
same,"Growth Rate, 0-14 day(s)",greenhouse-grown maize [3]; GA3 120 mg/liter,7.35 cm/day
same,Plant Growth over 7 days,greenhouse-grown maize [3]; GA3 120 mg/liter,27.3 cm
same,Plant Growth over 14 days,greenhouse-grown maize [3]; GA3 120 mg/liter,51.4 cm
same,"Growth Rate, 0-7 day(s)",greenhouse-grown maize [3]; GA3 240 mg/liter,4.25 cm/day
same,"Growth Rate, 0-14 day(s)",greenhouse-grown maize [3]; GA3 240 mg/liter,7.94 cm/day
same,Plant Growth over 7 days,greenhouse-grown maize [3]; GA3 240 mg/liter,29.8 cm
same,Plant Growth over 14 days,greenhouse-grown maize [3]; GA3 240 mg/liter,55.6 cm
same,Average row number per ear,corn [4]; counted 7 days before harvest,16.8
same,Height at 7 days post spray,corn [4]; [8],69.6 cm
same,Height at 13 days post spray,corn [4]; [8],88.6 cm
same,Yield,corn [4]; grain yield corrected to 15% moisture,222.8 bu/acre
same,Dry Weight/Plant,corn plants [5],2.92 g
same,Growth Rate,corn plants [5],4.76 cm/day
same,Growth over 9 days,corn plants [5],42.9 cm
same,Growth Rate,corn plants [6],2.38 cm/day
same,Growth over 9 days,corn plants [6],21.43 cm
same,Leaf Area of L1-L5,corn plants [6],324.24 cm^2
same,Growth Rate from 7-14 days,corn [7]; [9],4.89 cm/day
same,Height at 7 days post spray,corn [7]; [9],68.2 centimeters
same,Height at 14 days post spray,corn [7]; [9],102.4 centimeters
same,growth increase over the control plants (surfactant alone),corn [7]; one week after treatment application,6.9%
